Laboratory results from patent US11130959B2, “Methods and compositions for combinations of mutations associated with herbicide resistance/tolerance in rice” (priority 2016, dated 2021).

How the values were obtained:
[1] = test system: rice line PL1214418M2-73009; assay: Trial of recovery of HPPD tolerance in the combined line; type: in vivo, Oryza sativa; settings: 0.5×, 1×, 2×, 4× of 210 gmai/ha and sequential 1× and 2×
Protocol: Two trials were conducted to measure recovery of tolerance to both ACCase and HPPD herbicides in the new line PL1214418M2-73009. Recovery of tolerance in the line combining the two traits will illustrate that the traits are heritable and can be used to produce new varieties and hybrids carrying herbicide resistance. These trials are important as often times it is difficult to recover complex QTLs for quantitative traits or in some cases a traits response is dependent upon the genetic background. In the first trail the lines resistance to mesotrione (HPPD herbicide) was evaluated by planting line PL1214418M2-73009, the HPPD resistant line ML0831266-03093 and wild-type rice line P1003 and R0146 in plots (5 feet×10 feet). Mesotrione was applied at 0.5×, 1×, 2×, and 4× multiples of the labeled application rate (210 gmai/ha). Two additional treatments were included with a 1× and 2× rate followed by a second application 14 days afterward with the same rates.

[2] = test system: rice line R0146 (unmutated); assay: Mesotrione tolerance trials; type: in vivo, Oryza sativa; settings: low rates (105 gm ai/ha)
[3] = test system: rice line ML0831266-03093 (HPPDi + HPPDni); assay: Mesotrione tolerance trials
Protocol: FIG. 4 is a graphical representation of results of a trait tolerance trial wherein mesotrione was applied at the indicated rates about 34 days after planting.
In particular, a rate response experiment was conducted in which two different rates of mesotrione were applied pre-emergence, plus an additional foliar application was also applied.
Further validation of the trait involved testing the mutant line ML0831266-03093 in the presence of common rice weeds.
The mutant line is planted in rows or alternatively whole plots are planted and rows of the unmutated line (P1003) and other types of rice or whole plots are planted. Mesotrione is applied pre-emergence or alternatively it is applied post-emergence at the three to four leaf stage of the rice plants. Various rates of mesotrione are applied pre-emergence, pre-emergence followed by post-emergent, or post-emergent with a single or sequential application. Post-emergent applications are applied at the 3-4 leaf stage of the rice.

[4] = test system: rice line P1003 (unmutated parent); assay: Mesotrione tolerance trials; type: in vivo, Oryza sativa
[5] = test system: common weeds in rice (grass weeds such as barnyard grass); assay: Weed control in rice crops; type: in vivo
Protocol: FIGS. 5A and 5B are photographs of results of trait tolerance trials; weed control by mesotrione herbicide applied pre-planting was evaluated; the plots were planted with a hybrid of the HPPD tolerant line ML0831266-03093; just before planting, the plot on the right FIG. 5B received an application of mesotrione at 210 gmai/ha; the plot on the left FIG. 5A had no herbicide applied either pre-plant or post-emergence; pictures were taken four weeks after planting showing differences in weed appearance.
While testing the tolerant lines, the parent lines were also tested to serve as controls and as an indication of commercial potential as a red rice/wild weedy rice control strategy.
Rice is tolerant to certain ACCase inhibitor herbicides, for example cyhalofop is registered for use in rice. However other ACCase herbicides kill or severely injure rice to varying degrees. […] The applied rates of both types of herbicides giving the weed control are well within the tolerance level of the respective ACCase and HPPD tolerant lines including the combined lines carrying tolerance to both HPPD and ACCase herbicides.

[6] = test system: rice line ML0831265-01493; assay: Mesotrione tolerance trials; type: in vivo, Oryza sativa
[7] = test system: F2 individuals from cross ML0831266-03093 x ML0831265-01493; assay: Herbicide bioassays on F2 individuals (Table 3); type: in vivo, Oryza sativa
Text: In the population sprayed with 105 gm ai/ha a single QTL found on chromosome 2 with strong linkage to SNP marker BG-id2004662 acted in a mostly dominate manner. This marker and QTL identifies the inherent tolerance in line P1003. The marker is useful for breeding and selection of new mesotrione tolerant lines. The discovery of this QTL facilitates commercial development of new rice varieties with a new method for controlling weeds through the use of mesotrione herbicide. The finding of the linked marker BG-id2004662 is a novel finding and selection strategy for breeding and selecting the tolerance to mesotrione and other herbicides derived from line P1003.
Combining the HPPD tolerance with the ACCase tolerance into a single rice line was initiated with the HPPD tolerance mapping project by crossing the HPPD tolerant line ML0831266-03093 to the ACCase tolerant line ML0831265-01493. In mapping the F2 population plants were selected for HPPD tolerance by applying mesotrione first at a low rate (105 gmai/ha) followed by a high rate (630 gmai/ha). In this process molecular markers were also developed allowing future selection of HPPD tolerance by either markers or herbicide tolerance screening or both.
In one example a rate of 105 gm ai/ha is applied followed three weeks later by a second application of 630 gm ai/ha. In another example a rate of 420 gm ai/ha is applied in a single application. Yet another example entails applying the herbicide at a rate of 630 gm ai/ha. Herbicide applications are done at the three to four leaf stage of seedling growth. The ideal situation is to have also planted near or within the F2 population a set of plants from the original mutant mesotrione donor line ML0831266-03093, a row of plants of the wild-type of the mutation line, P1003, and a row of the line involved as the other parent ML0831265-01493. These control lines will allow easy differentiation for inheritance of the tolerance provided by the ML0831266-03093 mutant line through comparison of the response in the F2 plants to these control lines. Only plants that live and are relatively healthy will have inherited and be homozygous for the tolerance level provided by the ML0831266-03093 mutant line.

[8] = test system: rice line PL1214418M2-73001 (HPPD mutation only); assay: Contribution of single HPPD tolerance genes, field rows sprayed at 4 leaf stage; type: in vivo, Oryza sativa; settings: 0.5×-4× of 210 gmai/ha, 4 weeks after application
Text: (§1) During the breeding process to develop new lines (PL1214418M2-80048 and PL1214418M2-73009) with resistance/tolerance to HPPD and ACCase herbicides, two other lines were also investigated to determine the contribution of the HPPD tolerance mutation and the HPPD tolerance native gene. The line PL1214418M2-73001 carries ACCase tolerance and only the HPPD tolerance, whereas […] PL1214418M2-73013 carries ACCase tolerance and only the HPPD native tolerance gene. These selections allow the estimation of the tolerance effect of each of the two genes required for tolerance to HPPD herbicides. The tolerance effect of each gene was measured by growing the lines in single rows including the newly developed line PL1214418M2-73009 that carries both the HPPD tolerance from the mutation and the non-induced tolerance, the HPPD tolerant line ML0831266-0309, and the non-induced parent line P1003. The field plots were sprayed at the 4 leaf stage with the HPPD herbicide mesotrione at 0.5×, 1×, 2×, and 4× multiples of the labeled application rate of 210 gmai/ha.

[9] = test system: rice line PL1214418M2-73013 (HPPD native tolerance gene only); assay: as above; type: in vivo, Oryza sativa; settings: 0.5×-4× of 210 gmai/ha, 4 weeks after application
Text: as §1

[10] = 105 gai/ha followed by second application of 630 gai/ha
[11] = single application at 105 gai/ha
[12] = single application at 420 gai/ha

Structure (SMILES): CS(=O)(=O)c1ccc(C(=O)C2C(=O)CCCC2=O)c([N+](=O)[O-])c1 [mesotrione]
- response compared with original trait line ML0831266-03093 [1]: same response
- survival [2]: killed
- rate over which even lines with genetic resistance may be injured ([3]; FIG. 4 trial, 4 weeks after application): over 420 gmai/ha
- tolerance of the crop in the presence of common rice weeds ([3]; applied rates): completely tolerant
- survival ([3]; higher rates): survives
- survival ([3]; low rates (105 gm ai/ha)): survive
- survival ([4]; higher rates): killed or severally injured
- survival ([4]; low rates (105 gm ai/ha)): survive
- control of common weeds in rice ([5]; alone, especially pre-plant or at 2× the labeled rate of 210 gmai/ha): Control of common weeds in rice was also achieved
- control of prevalent weed population ([5]; plots with line ML0831266-03093): well controlled
- sensitivity ([6]; in vivo): highly sensitive
- survival ([6]; low rates (105 gm ai/ha)): killed
- Observed number of Susceptible plants [7, 10]: 67
- Observed number of Tolerant plants [7, 10]: 28
- Observed number of Susceptible plants [7, 11]: 23
- Observed number of Tolerant plants [7, 11]: 64
- Observed number of Susceptible plants [7, 12]: 52
- Observed number of Tolerant plants [7, 12]: 26
- tolerance level between P1003 and ML0831266-0309 [8]: intermediate tolerance
- tolerance level [9]: tolerance levels similar to the parent line P1003
